Test results: ChEMBL document CHEMBL1122503 (J Med Chem, 1983)

System: L1210
Test: cells
Conditions: Mus musculus, L1210, read-out: ID50
Description: Growth inhibition against cultured murine L1210 leukemia cells

In order of rising IC50:
1. COc1cc(NS(C)(=O)=O)ccc1Nc1c2ccccc2nc2cc(N)ccc12  5.5 nM
2. COc1cc(NS(C)(=O)=O)ccc1Nc1c2ccccc2nc2cc(C)ccc12  12 nM
3. CNC(=O)c1cccc2c(Nc3ccc(NS(C)(=O)=O)cc3OC)c3ccc(N)cc3nc12  21 nM
4. COc1ccc2c(Nc3ccc(NS(C)(=O)=O)cc3OC)c3ccccc3nc2c1  22 nM
5. COc1cc(NS(C)(=O)=O)ccc1Nc1c2ccccc2nc2cc(Br)ccc12  50 nM
6. COc1cc(NS(C)(=O)=O)ccc1Nc1c2ccccc2nc2cc(I)ccc12  50 nM
7. CNC(=O)c1cccc2c(Nc3ccc(NS(C)(=O)=O)cc3OC)c3ccc(OC)cc3nc12  68 nM
8. COc1cc(NS(C)(=O)=O)ccc1Nc1c2ccccc2nc2cc(Cl)ccc12  70 nM
9. COc1cc(NS(C)(=O)=O)ccc1Nc1c2ccccc2nc2cc([N+](=O)[O-])ccc12  110 nM
10. CNC(=O)c1cccc2c(Nc3ccc(NS(C)(=O)=O)cc3OC)c3ccc(C)cc3nc12  170 nM
11. COc1cc(NS(C)(=O)=O)ccc1Nc1c2ccc(C)cc2nc2c(C(N)=O)cccc12  200 nM
12. CNC(=O)c1cccc2c(Nc3ccc(NS(C)(=O)=O)cc3OC)c3ccc(Cl)cc3nc12  217 nM
13. CNC(=O)c1cccc2c(Nc3ccc(NS(C)(=O)=O)cc3OC)c3ccccc3nc12  270 nM
14. COc1cc(NS(C)(=O)=O)ccc1Nc1c2ccccc2nc2c(C(N)=O)cccc12  270 nM
15. CNC(=O)c1cccc2c(Nc3ccc(NS(C)(=O)=O)cc3OC)c3ccc([N+](=O)[O-])cc3nc12  303 nM
16. COc1cc(NS(C)(=O)=O)ccc1Nc1c2ccc([N+](=O)[O-])cc2nc2c(C(N)=O)cccc12  350 nM
17. COc1cc(NS(C)(=O)=O)ccc1Nc1c2ccc(C)cc2nc2c(C(=O)NCC(N)=O)cccc12  460 nM
18. COc1cc(NS(C)(=O)=O)ccc1Nc1c2ccc(Cl)cc2nc2c(C(N)=O)cccc12  520 nM
19. COc1cc(NS(C)(=O)=O)ccc1Nc1c2ccccc2nc2c(C(=O)NCC(N)=O)cccc12  850 nM
20. COc1cc(NS(C)(=O)=O)ccc1Nc1c2ccc(Cl)cc2nc2c(C(=O)NCC(N)=O)cccc12  890 nM

System: Nucleic Acid
Test: not given
Conditions: not given

In order of falling Log K:
1. COc1cc(NS(C)(=O)=O)ccc1Nc1c2ccc(Cl)cc2nc2c(C(=O)NCC(N)=O)cccc12  6.83
2. CNC(=O)c1cccc2c(Nc3ccc(NS(C)(=O)=O)cc3OC)c3ccc(OC)cc3nc12  6.82
3. CNC(=O)c1cccc2c(Nc3ccc(NS(C)(=O)=O)cc3OC)c3ccc(N)cc3nc12  6.82
4. COc1cc(NS(C)(=O)=O)ccc1Nc1c2ccc(C)cc2nc2c(C(=O)NCC(N)=O)cccc12  6.69
5. CNC(=O)c1cccc2c(Nc3ccc(NS(C)(=O)=O)cc3OC)c3ccc(C)cc3nc12  6.68
6. CNC(=O)c1cccc2c(Nc3ccc(NS(C)(=O)=O)cc3OC)c3ccc(Cl)cc3nc12  6.65
7. CNC(=O)c1cccc2c(Nc3ccc(NS(C)(=O)=O)cc3OC)c3ccc([N+](=O)[O-])cc3nc12  6.65
8. COc1cc(NS(C)(=O)=O)ccc1Nc1c2ccc(Cl)cc2nc2c(C(N)=O)cccc12  6.58
9. COc1cc(NS(C)(=O)=O)ccc1Nc1c2ccc([N+](=O)[O-])cc2nc2c(C(N)=O)cccc12  6.4
10. COc1cc(NS(C)(=O)=O)ccc1Nc1c2ccccc2nc2c(C(=O)NCC(N)=O)cccc12  6.4
11. COc1cc(NS(C)(=O)=O)ccc1Nc1c2ccc(C)cc2nc2c(C(N)=O)cccc12  6.3
12. COc1cc(NS(C)(=O)=O)ccc1Nc1c2ccccc2nc2cc(I)ccc12  6.2
13. CNC(=O)c1cccc2c(Nc3ccc(NS(C)(=O)=O)cc3OC)c3ccccc3nc12  6.18
14. COc1cc(NS(C)(=O)=O)ccc1Nc1c2ccccc2nc2cc(N)ccc12  6.13
15. COc1cc(NS(C)(=O)=O)ccc1Nc1c2ccccc2nc2cc([N+](=O)[O-])ccc12  6.13
16. COc1cc(NS(C)(=O)=O)ccc1Nc1c2ccccc2nc2c(C(N)=O)cccc12  6.13
17. COc1cc(NS(C)(=O)=O)ccc1Nc1c2ccccc2nc2cc(Br)ccc12  6.12
18. COc1cc(NS(C)(=O)=O)ccc1Nc1c2ccccc2nc2cc(C)ccc12  6.08
19. COc1cc(NS(C)(=O)=O)ccc1Nc1c2ccccc2nc2cc(Cl)ccc12  5.98
20. COc1ccc2c(Nc3ccc(NS(C)(=O)=O)cc3OC)c3ccccc3nc2c1  5.97
21. COc1cc(NS(C)(=O)=O)ccc1Nc1c2ccccc2nc2ccccc12  5.65

System: not listed separately
Test: physchem
Conditions: 20% aqueous DMF
Description: pKa value determined spectrophotometrically in 20% aqueous DMF

In order of falling pKa:
1. COc1cc(NS(C)(=O)=O)ccc1Nc1c2ccccc2nc2cc(N)ccc12  9.5
2. CNC(=O)c1cccc2c(Nc3ccc(NS(C)(=O)=O)cc3OC)c3ccc(Cl)cc3nc12  5.68
3. COc1cc(NS(C)(=O)=O)ccc1Nc1c2ccc(Cl)cc2nc2c(C(N)=O)cccc12  5.68
4. COc1cc(NS(C)(=O)=O)ccc1Nc1c2ccccc2nc2cc([N+](=O)[O-])ccc12  5.52
5. COc1cc(NS(C)(=O)=O)ccc1Nc1c2ccc(Cl)cc2nc2c(C(=O)NCC(N)=O)cccc12  5.5
6. CNC(=O)c1cccc2c(Nc3ccc(NS(C)(=O)=O)cc3OC)c3ccc(OC)cc3nc12  4.82
7. COc1cc(NS(C)(=O)=O)ccc1Nc1c2ccc(C)cc2nc2c(C(N)=O)cccc12  4.71
8. COc1cc(NS(C)(=O)=O)ccc1Nc1c2ccc([N+](=O)[O-])cc2nc2c(C(N)=O)cccc12  4.71
9. CNC(=O)c1cccc2c(Nc3ccc(NS(C)(=O)=O)cc3OC)c3ccc([N+](=O)[O-])cc3nc12  4.71
10. CNC(=O)c1cccc2c(Nc3ccc(NS(C)(=O)=O)cc3OC)c3ccc(C)cc3nc12  4.71
11. COc1cc(NS(C)(=O)=O)ccc1Nc1c2ccc(C)cc2nc2c(C(=O)NCC(N)=O)cccc12  4.53

System: Nucleic Acid
Test: not given
Conditions: not given
Remark: another data set of the same source

In order of rising Log K:
1. COc1cc(NS(C)(=O)=O)ccc1Nc1c2ccccc2nc2c(C(=O)NCC(N)=O)cccc12  5.39
2. COc1cc(NS(C)(=O)=O)ccc1Nc1c2ccccc2nc2c(C(N)=O)cccc12  5.47
3. CNC(=O)c1cccc2c(Nc3ccc(NS(C)(=O)=O)cc3OC)c3ccccc3nc12  5.54
4. COc1cc(NS(C)(=O)=O)ccc1Nc1c2ccccc2nc2ccccc12  5.57
5. COc1cc(NS(C)(=O)=O)ccc1Nc1c2ccccc2nc2cc([N+](=O)[O-])ccc12  5.65
6. CNC(=O)c1cccc2c(Nc3ccc(NS(C)(=O)=O)cc3OC)c3ccc([N+](=O)[O-])cc3nc12  5.71
7. COc1ccc2c(Nc3ccc(NS(C)(=O)=O)cc3OC)c3ccccc3nc2c1  5.83
8. COc1cc(NS(C)(=O)=O)ccc1Nc1c2ccccc2nc2cc(C)ccc12  5.95
9. COc1cc(NS(C)(=O)=O)ccc1Nc1c2ccc([N+](=O)[O-])cc2nc2c(C(N)=O)cccc12  5.96
10. COc1cc(NS(C)(=O)=O)ccc1Nc1c2ccc(C)cc2nc2c(C(=O)NCC(N)=O)cccc12  6
11. COc1cc(NS(C)(=O)=O)ccc1Nc1c2ccc(Cl)cc2nc2c(C(=O)NCC(N)=O)cccc12  6.06
12. COc1cc(NS(C)(=O)=O)ccc1Nc1c2ccccc2nc2cc(Cl)ccc12  6.06
13. COc1cc(NS(C)(=O)=O)ccc1Nc1c2ccccc2nc2cc(N)ccc12  6.21
14. CNC(=O)c1cccc2c(Nc3ccc(NS(C)(=O)=O)cc3OC)c3ccc(C)cc3nc12  6.22
15. CNC(=O)c1cccc2c(Nc3ccc(NS(C)(=O)=O)cc3OC)c3ccc(Cl)cc3nc12  6.29
16. COc1cc(NS(C)(=O)=O)ccc1Nc1c2ccccc2nc2cc(Br)ccc12  6.29
17. CNC(=O)c1cccc2c(Nc3ccc(NS(C)(=O)=O)cc3OC)c3ccc(N)cc3nc12  6.29
18. COc1cc(NS(C)(=O)=O)ccc1Nc1c2ccc(Cl)cc2nc2c(C(N)=O)cccc12  6.33
19. COc1cc(NS(C)(=O)=O)ccc1Nc1c2ccccc2nc2cc(I)ccc12  6.35
20. CNC(=O)c1cccc2c(Nc3ccc(NS(C)(=O)=O)cc3OC)c3ccc(OC)cc3nc12  6.38
21. COc1cc(NS(C)(=O)=O)ccc1Nc1c2ccc(C)cc2nc2c(C(N)=O)cccc12  6.4
